In patent publication US6949571B2, “1,2-dihydropyridine compounds, process for preparation of the same and use thereof” (Eisai Co., Ltd., priority 2000, dated 2005):
Structures can show the parent of a compound that is named as a salt.

These compounds were tested on AMPA receptor. Settings: Table 1; primary culture of rat embryo cerebral cortex nerve cells, 2 μM AMPA, 1 μM MK-801.
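Also: primary rat embryonic cortical neurons grown on an astrocyte layer in 96-well plates, used after at least 8 to 10 days in culture, Fura2-AM fluorescence ratio at 340/380 nm excitation.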

| Structure (SMILES) | IC50 |
| --- | --- |
| N#Cc1ccccc1-c1cc(-c2ccsc2)cn(-c2ccccc2)c1=O [Example 44, 3-(2-Cyanophenyl)-5-(thiophen-3-yl)-1-phenyl-1,2-dihydropyridin-2-one] | 300 nM |
| O=c1c(-c2ccccc2C(F)(F)F)cc(-c2ccccn2)cn1-c1cccnc1 [Example 132, 3-(2-Trifluoromethylphenyl)-5-(2-pyridyl)-1-(3-pyridyl)-1,2-dihydropyridin-2-one] | 3100 nM |
| COc1ccc(-n2cc(-c3ccccn3)cc(-c3ccccc3C#N)c2=O)cn1 [Example 109, 3-(2-Cyanophenyl)-5-(2-pyridyl)-1-(2-methoxypyridyn-5-yl)-1,2-dihydropyridin-2-one] | 10 nM |
| N#Cc1ccccc1-c1cc(-c2ccccc2)c(=O)n(-c2ccccn2)c1 [Example 38, 3-Phenyl-5-(2-cyanophenyl)-1-(2-pyridyl)-1,2-dihydropyridin-2-one] | 6300 nM |
| N#Cc1ccccc1-c1cc(-c2ccccn2)cn(-c2ccccc2C=O)c1=O [Example 101, 3-(2-Cyanophenyl)-5-(2-pyridyl)-1-(2-formylphenyl)-1,2-dihydropyridin-2-one] | 200 nM |
| O=c1c(-c2ccccc2F)cc(-c2ccccn2)cn1-c1ccccc1 [Example 71, 3-(2-Fluorophenyl)-5-(2-pyridyl)-1-phenyl-1,2-dihydropyridin-2-one] | 50 nM |
| N#Cc1ccccc1-c1cc(-c2ccccn2)cn(-c2ccc(F)nc2)c1=O [Example 123, 3-(2-Cyanophenyl)-5-(2-pyridyl)-1-(2-fluoropyridin-5-yl)-1,2-dihydropyridin-2-one] | 200 nM |
| O=c1c(-c2ccccc2Cl)cc(-c2ccccn2)cn1-c1ccc(F)cc1 [Example 99, 3-(2-Chlorophenyl)-5-(2-pyridyl)-1-(4-fluorophenyl)-1,2-dihydropyridin-2-one] | 100 nM |
| CNC(=O)c1cccc(-n2cc(-c3ccccn3)cc(-c3ccccc3C#N)c2=O)c1 [Example 15, 3-(2-Cyanophenyl)-5-(2-pyridyl)-1-(3-methylaminocarbonylphenyl)-1,2-dihydropyridin-2-one] | 50 nM |
| COC(=O)c1cccc(-n2cc(-c3ccccn3)cc(-c3ccccc3C#N)c2=O)c1 [Example 14, 3-(2-Cyanophenyl)-5-(2-pyridyl)-1-(3-methoxycarbonylphenyl)-1,2-dihydropyridin-2-one] | 100 nM |
| N#Cc1ccccc1-c1cc(-c2cccnc2)cn(-c2ccccc2)c1=O [Example 34, 3-(2-Cyanophenyl)-5-(3-pyridyl)-1-phenyl-1,2-dihydropyridin-2-one] | 3700 nM |
| O=c1c(-c2ccccc2)cc(-c2ccccc2)cn1-c1ccccn1 [Example 37, 3,5-Diphenyl-1-(2-pyridyl)-1,2-dihydropyridin-2-one] | 700 nM |

Same assay, conditions: Table 2; suppression of AMPA-induced calcium influx into nerve cells

| Structure (SMILES) | IC50 |
| --- | --- |
| N#Cc1ccccc1-c1cc(-c2ccccn2)cn(-c2ccc(CO)cc2)c1=O [Example 148, 3-(2-Cyanophenyl)-5-(2-pyridyl)-1-(4-hydroxymethylphenyl)-1,2-dihydropyridin-2-one] | 800 nM |
| N#Cc1ccccc1-c1cc(-c2cccnn2)cn(-c2ccccc2)c1=O [Example 204, 3-(2-Cyanophenyl)-1-phenyl-5-(3-pyridazyl)-1,2-dihydropyridin-2-one] | 1600 nM |
| CN(C)Cc1ccccc1-c1cc(-c2ccccn2)cn(-c2ccccc2)c1=O [Example 154, 3-(2-Dimethylaminomethylphenyl)-5-(2-pyridyl)-1-phenyl-1,2-dihydropyridin-2-one dihydrochloride] | 5000 nM |
| N#Cc1ccccc1-c1cc(-c2ccccn2)cn(C2=CCCN(Cc3ccccc3)C2)c1=O [Example 180, 3-(2-Cyanophenyl)-5-(2-pyridyl)-1-(1-benzyl-1,2,3,6-tetrahydropyridin-5-yl)-1,2-dihydropyridin-2-one] | 500 nM |
| N#Cc1ncccc1-c1cc(-c2ccccn2)cn(-c2cccnc2)c1=O [Example 294, 3-(2-Cyanopyridin-3-yl)-5-(2-pyridyl)-1-(3-pyridyl)-1,2-dihydropyridin-2-one] | 600 nM |
| CS(=O)(=O)Nc1ccc(-c2cc(-c3ccccn3)cn(-c3ccccc3)c2=O)cc1 [Example 227, 3-[4-(Methanesulfonylamino)phenyl]-1-phenyl-5-(2-pyridyl)-1,2-dihydropyridin-2-one] | 1800 nM |
| N#Cc1ccccc1-c1cc(-c2ccc(N)cn2)cn(-c2ccccc2)c1=O [Example 217, 5-(5-Aminopyridin-2-yl)-3-(2-cyanophenyl)-1-phenyl-1,2-dihydropyridin-2-one] | 1300 nM |
| CS(=O)(=O)Nc1ccccc1-c1cc(-c2ccccn2)cn(-c2ccccc2)c1=O [Example 226, 3-[2-(Methylsulfonylamino)phenyl]-1-phenyl-5-(2-pyridyl)-1,2-dihydropyridin-2-one] | 9500 nM |
| N#Cc1ccccc1-c1cc(-c2ccccn2)cn(-c2ccccn2)c1=O [Example 159, 3-(2-Cyanophenyl)-1-(2-pyridyl)-5-(2-pyridyl)-1,2-dihydropyridin-2-one] | 1600 nM |
| Nc1ccccc1-c1cc(-c2ccccn2)cn(-c2ccccc2)c1=O [Example 219, 3-(2-Aminophenyl)-1-phenyl-5-(2-pyridyl)-1,2-dihydropyridin-2-one] | 3700 nM |
| CC(=O)Nc1cccc(-c2cc(-c3ccccn3)cn(-c3ccccc3)c2=O)c1 [Example 232, 3-[3-(Acetylamino)phenyl]-1-phenyl-5-(2-pyridyl)-1,2-dihydropyridin-2-one] | 4300 nM |
| O=C1C=C(c2cc(-c3ccccn3)cn(-c3ccccc3)c2=O)CCC1 [Example 268, 3-(3-Oxo-1-cyclohexen-1-yl)-1-phenyl-5-(2-pyridyl)-1,2-dihydropyridin-2-one] | 4200 nM |
| O=c1c(-c2cccc(O)c2)cc(-c2ccccn2)cn1-c1ccccc1 [Example 237, 3-(3-Hydroxyphenyl)-1-phenyl-5-(2-pyridyl)-1,2-dihydropyridin-2-one] | 1500 nM |
| CN(C)CCCOc1cccc(-n2cc(-c3ccccn3)cc(-c3ccccc3C#N)c2=O)c1 [Example 243, 3-(2-Cyanophenyl)-1-[3-(dimethylaminopropyloxy)phenyl]-5-(2-pyridyl)-1,2-dihydropyridin-2-one] | 1200 nM |
| N#Cc1ccccc1-c1cc(-c2nc3ccccc3n2-c2ccccc2)cn(-c2ccccc2)c1=O [Example 182, 3-(2-Cyanophenyl)-5-(1-phenylbenzimidazol-2-yl)-1-phenyl-1,2-dihydropyridin-2-one] | 6000 nM |
| N#Cc1ccccc1-c1cc(-c2nccs2)cn(-c2ccccc2)c1=O [Example 201, 3-(2-Cyanophenyl)-1-phenyl-5-(2-thiazoyl)-1,2-dihydropyridin-2-one] | 200 nM |
| N#Cc1ccccc1-c1cc(-c2ccccn2)cn(-c2cccc(OCCN3CCCCC3)c2)c1=O [Example 240, 3-(2-Cyanophenyl)-1-[3-(piperidinoethoxy)phenyl]-5-(2-pyridyl)-1,2-dihydropyridin-2-one] | 100 nM |
| N#Cc1ccccc1-c1cc(-c2ccccn2)cn(-c2cccc(CN3CCCC3)c2)c1=O [Example 250, 3-(2-Cyanophenyl)-1-[3-(pyrrolidinomethyl)phenyl]-5-(2-pyridyl)-1,2-dihydropyridin-2-one] | 900 nM |
| O=c1c(-c2cscn2)cc(-c2ccccn2)cn1-c1ccccc1 [Example 267, 1-Phenyl-5-(2-pyridyl)-3-(thiazol-4-yl)-1,2-dihydropyridin-2-one] | 1000 nM |
| O=c1c(-c2cccc3ccccc23)cc(-c2ccccn2)cn1-c1cccnc1 [Example 279, 3-(1-Naphthyl)-5-(2-pyridyl)-1-(3-pyridyl)-1,2-dihydropyridin-2-one] | 3700 nM |
| N#Cc1ccccc1-c1cc(-c2ncccn2)cn(-c2cccc([N+](=O)[O-])c2)c1=O [Example 266, 3-(2-Cyanophenyl)-1-(3-nitrophenyl)-5-(2-pyrimidinyl)-1,2-dihydropyridin-2-one] | 100 nM |
| O=c1c(-c2ccccc2Cl)cc(COc2ccccc2)cn1-c1ccccc1 [Example 185, 3-(2-Chlorophenyl)-5-phenoxymethyl-1-phenyl-1,2-dihydropyridin-2-one] | 1700 nM |

Same assay, conditions: Table 3; primary culture of rat embryo cerebral cortex nerve cells, 2 μM AMPA, 1 μM MK-801

| Structure (SMILES) | IC50 |
| --- | --- |
| N#Cc1ccccc1-c1cc(NC(=O)c2ccccn2)cn(-c2ccccc2)c1=O [Example 309, 3-(2-Cyanophenyl)-1-phenyl-5-(2-pyridincarbonyl)amino-1,2-dihydropyridin-2-one] | 4100 nM |
| Cn1cccc2nc(-c3cc(-c4ccccc4C#N)c(=O)n(-c4ccccc4)c3)nc1-2 [Example 388, 3-(2-Cyanophenyl)-5-(4-methyl-imidazo[4.5-b]pyridin-2-yl)-1-phenyl-1,2-dihydropyridin-2-one] | 2900 nM |
| N#Cc1ccccc1-c1cc(-c2ccccn2)cn(C2CCCN(Cc3ccccc3)C2)c1=O (stereo not drawn) [Example 379-B, 3-(2-Cyanophenyl)-5-(2-pyridyl)-1-(N-benzylpiperidin-3-yl)-1,2-dihydropyridin-2-one] | 6400 nM |
| N#Cc1ccccc1-c1cc(-c2ccccn2)cn(-c2cccc(OC3CCNCC3)c2)c1=O [Example 330, 3-(2-Cyanophenyl)-1-[3-(4-piperidyloxy)]phenyl-5-(2-pyridyl)-1,2-dihydropyridin-2-one] | 400 nM |
| O=c1c(S(=O)(=O)c2ccc(Cl)cc2)cc(-c2ccccn2)cn1-c1ccccc1 [Example 382-B, 3-(4-Chlorobenzenesulfonyl)-5-(2-pyridyl)-1-phenyl-1,2-dihydropyridin-2-one] | 2300 nM |
| O=c1c(-c2ccccc2Cl)cc(Sc2ccc(Cl)cc2)cn1-c1cccnc1 [Example 385, 3-(2-Chlorophenyl)-5-(4-chlorophenylthio)-1-(3-pyridyl)-1,2-dihydropyridin-2-one] | 1100 nM |
| CCCCNC(=O)Nc1ccc(-c2cc(-c3ccccn3)cn(-c3ccccc3)c2=O)cc1 [Example 308, 3-{4[N-(N′-butylureylenyl)phenyl]}-1-phenyl-5-(2-pyridyl)-1,2-dihydropyridin-2-one] | 1600 nM |
| Cc1ccc2[nH]c(-c3cc(-c4ccccc4C#N)c(=O)n(-c4ccccc4)c3)nc2c1 [Example 351, 3-(2-Cyanophenyl)-5-(5-methyl-1H-benzimidazol-2-yl)-1-phenyl-1,2-dihydropyridin-2-one] | 3300 nM |
